This passage reports inhibition results from US3962445A, “Anti-allergenic carbostyril derivatives” (Beecham Group Limited, priority 1973, dated 1976).

The assay concerns PCA response. Description: rat Passive Cutaneous Anaphylaxis Test (PCA test). The format is in vivo, rat (male Wistar). The following applies: subcutaneous, as sodium salt. On the procedure:
Some of the 4-hydroxycarbostyrils prepared in the preceding examples were tested in the rat Passive Cutaneous Anaphylaxis Test (PCA test), described below. They were administered as their sodium salts either in pH 7.2 phosphate buffer (for soluble salts) or as a suspension in 1% methyl cellulose (for insoluble salts).
Male Wistar rats of 250-300g, were injected intraperitoneally with 0.5 ml. of Bordatella pertussis vaccine (containing 4 × 10^10 dead organism per ml) and subcutaneously with 0.5 ml. of an emulsion of 100 mg. of ovalbumin in 2 ml of saline and 3 ml. of incomplete Freunds' adjuvant. Rats were bled by cardiac puncture on day 18, the blood was pooled and separated and serum stored at -20° and thawed only once before use.
0.1 ml of each of six twofold serial dilutions of the serum in 0.9% saline were injected intradermally into separate sites on the shaved dorsal surface of 250-350 g. Male Wistar rats. 72 hours later the animals were challenged by i v injection of 0.3 ml. of 1% ovalbumin mixed with 0.1 ml of a 5% solution of pontamine sky blue dye both in isotonic saline buffered with pH. 7.2 Sorenson buffer (P P S ) The rats were killed after 20 minutes and the diameter of the blue wheals at the antibody injection sites were measured. The starting dilution of the serum was adjusted so that there was no response after challenge, at the site of injection of the highest dilution and a maximum response at the two or three lowest dilutions. Typically, six twofold serial dilutions of the serum 1/4 to […] were used.
Amounts of the compounds were administered to rats by subcutaneous injection, into the nucal region, of a solution of the compound in P.B.S. or as a suspension in 1% methyl cellulose, each amount to a test group of six animals at a specified time prior to intravenous challenge with ovalbumin.
% Inhibition of P.C.A = 100 (1 - a/b)
For those compounds having insoluble sodium salts, the salts were isolated by reaction of the free nitro compound with 2.5N sodium hydroxide and the filtered sodium salt washed free of alkali with water. The dried salts were then administered as a suspension in 1% methyl cellulose.

[1] abbreviates: 0 h, time 0 mins. prior to i.v. ovalbumin challenge.
[2] abbreviates: 0.5 h, time 30 mins. prior to i.v. ovalbumin challenge.
Where [3] appears, read: 1 h, time 60 mins. prior to i.v. ovalbumin challenge.

For orientation: inhibition means the change of the read-out against control, counted positive when it falls. On to `O=c1[nH]c2ccccc2c(O)c1[N+](=O)[O-]` [Example 1, 4-Hydroxy-3-nitrocarbostyril], for which, under setting [1], the inhibition at 25 mg/kg came out at 9% and the inhibition at 100 mg/kg was determined as 33%. Moreover, under setting [2], the inhibition at 25 mg/kg came out at 19% and the inhibition at 100 mg/kg was 40%.
As for `O=c1[nH]c2ccc([N+](=O)[O-])cc2c(O)c1[N+](=O)[O-]` [Example 2, 3,6-Dinitro-4-hydroxycarbostyril], under setting [1], the inhibition at 25 mg/kg came to 4% and the inhibition at 100 mg/kg is -14%. Further, under setting [3], the inhibition at 25 mg/kg is 31% and the inhibition at 100 mg/kg was 23%.
Consider `O=c1[nH]c2ccc(Cl)cc2c(O)c1[N+](=O)[O-]` [Example 3, 6-Chloro-4-hydroxy-3-nitrocarbostyril], for which the inhibition at 25 mg/kg runs as follows: under setting [1], -39%; under setting [3], 33%. The inhibition at 100 mg/kg reads like this: under setting [1], -30%; under setting [3], 54%.
For the compound `Cc1ccc2[nH]c(=O)c([N+](=O)[O-])c(O)c2c1` [Example 4, 4-Hydroxy-6-methyl-3-nitrocarbostyril], under setting [1], the inhibition at 25 mg/kg came out at 14% and the inhibition at 100 mg/kg was 30%. Under setting [3], the inhibition at 25 mg/kg amounted to 15% and the inhibition at 100 mg/kg was found to be 23%.
For the compound `CCc1ccc2[nH]c(=O)c([N+](=O)[O-])c(O)c2c1` [Example 5, 6-Ethyl-4-hydroxy-3-nitro-carbostyril], under setting [1], the inhibition at 25 mg/kg was 19% and the inhibition at 100 mg/kg was 26%. Under setting [3], the inhibition at 25 mg/kg turned out to be 13% and the inhibition at 100 mg/kg is 33%.
The matching figures for `Cc1cccc2[nH]c(=O)c([N+](=O)[O-])c(O)c12` [Example 6 (a), 4-Hydroxy-5-methyl-3-nitrocarbostyril]: 5%, 7%, 1% and 51%.
`Cc1ccc2c(O)c([N+](=O)[O-])c(=O)[nH]c2c1` [Example 6 (b), 4-hydroxy-7-methyl-3-nitrocarbostyril]: under setting [1], the inhibition at 25 mg/kg was 12% and the inhibition at 100 mg/kg was determined as 7%. Moreover, under setting [3], the inhibition at 25 mg/kg is 1% and the inhibition at 100 mg/kg is 23%.
With `Cc1cccc2c(O)c([N+](=O)[O-])c(=O)[nH]c12` [Example 7, 4-Hydroxy-8-methyl-3-nitrocarbostyril], under setting [1], the inhibition at 25 mg/kg stood at 23% and the inhibition at 100 mg/kg was determined as 71%. Also, under setting [2], the inhibition at 25 mg/kg turned out to be 18% and the inhibition at 100 mg/kg worked out at 36%.
Consider `O=c1[nH]c2ccc(Br)cc2c(O)c1[N+](=O)[O-]` [Example 8, 6-Bromo-4-hydroxy-3-nitrocarbostyril], for which, under setting [1], the inhibition at 25 mg/kg was found to be 5% and the inhibition at 100 mg/kg is -11%. Besides, under setting [3], the inhibition at 25 mg/kg worked out at 25% and the inhibition at 100 mg/kg worked out at 19%.
On to `Cc1ccc(C)c2c(O)c([N+](=O)[O-])c(=O)[nH]c12` [Example 9, 5,8-Dimethyl-4-hydroxy-3-nitrocarbostyril], for which the inhibition at 25 mg/kg under setting [1] turned out to be 7% and the inhibition at 25 mg/kg under setting [2] worked out at 9%. Further, the inhibition at 100 mg/kg was determined as 22% under setting [1] and 27% under setting [2].
`Cc1cc(C)c2c(O)c([N+](=O)[O-])c(=O)[nH]c2c1` [Example 10, 5,7-Dimethyl-4-hydroxy-3-nitrocarbostyril]: the inhibition at 25 mg/kg is, setting by setting: under setting [1], 0%; under setting [3], 35%. Also, the inhibition at 100 mg/kg by setting is: under setting [1], 22%; under setting [3], 44%.
For the compound `Cc1cc(C)c2[nH]c(=O)c([N+](=O)[O-])c(O)c2c1` [Example 11, 6,8-Dimethyl-4-hydroxy-3-nitrocarbostyril], the inhibition at 25 mg/kg under setting [1] amounted to 11% and the inhibition at 25 mg/kg under setting [3] is 52%. The inhibition at 100 mg/kg is, setting by setting: under setting [1], 0%; under setting [3], 51%.
Turning to `Cc1ccc2c(O)c([N+](=O)[O-])c(=O)[nH]c2c1C` [Example 12, 7,8-Dimethyl-4-hydroxy-3-nitrocarbostyril], under setting [1], the inhibition at 25 mg/kg was 9% and the inhibition at 100 mg/kg turned out to be 50%. In addition, under setting [2], the inhibition at 25 mg/kg was 36% and the inhibition at 100 mg/kg is 47%.
For the compound `O=c1[nH]c2c(Br)cccc2c(O)c1[N+](=O)[O-]` [Example 13, 8-Bromo-4-hydroxy-3-nitrocarbostyril], under setting [1], the inhibition at 25 mg/kg was found to be 36% and the inhibition at 100 mg/kg turned out to be 49%. Besides, under setting [3], the inhibition at 25 mg/kg was 32% and the inhibition at 100 mg/kg amounted to 32%.
Consider `O=c1[nH]c2c(Cl)cccc2c(O)c1[N+](=O)[O-]` [Example 14, 8-Chloro-4-hydroxy-3-nitrocarbostyril], for which, under setting [1], the inhibition at 25 mg/kg came out at 18% and the inhibition at 100 mg/kg worked out at 26%. Moreover, under setting [3], the inhibition at 25 mg/kg stood at 42% and the inhibition at 100 mg/kg was 43%.
The matching figures for `Cc1cc2[nH]c(=O)c([N+](=O)[O-])c(O)c2cc1C` [Example 15, 6,7-Dimethyl-4-hydroxy-3-nitrocarbostyril]: 62%, 88%, 27% and 54%.
For `O=c1[nH]c2cc(Cl)ccc2c(O)c1[N+](=O)[O-]` [Example 16, 7-Chloro-4-hydroxy-3-nitrocarbostyril], under setting [1], the inhibition at 25 mg/kg was -3% and the inhibition at 100 mg/kg is 13%. Also, under setting [2], the inhibition at 25 mg/kg is 9% and the inhibition at 100 mg/kg came out at 63%.
`CCc1cc2[nH]c(=O)c([N+](=O)[O-])c(O)c2cc1CC` [Example 17, 6,7-Diethyl-4-hydroxy-3-nitrocarbostyril]: under setting [1], the inhibition at 25 mg/kg was found to be 25% and the inhibition at 100 mg/kg stood at 32%. Besides, under setting [3], the inhibition at 25 mg/kg is 34% and the inhibition at 100 mg/kg stood at 42%.
In the case of `CCn1c(=O)c([N+](=O)[O-])c(O)c2ccccc21` [Example 30, 1-Ethyl-4-hydroxy-3-nitro carbostyril], the inhibition at 25 mg/kg turned out to be 9% under setting [1] and 34% under setting [2]. Also, the inhibition at 100 mg/kg worked out at 20% under setting [1] and 41% under setting [2].
On to `Cn1c(=O)c([N+](=O)[O-])c(O)c2ccccc21` [Example 31, 4-Hydroxy-1-methyl-3-nitro carbostyril], for which, under setting [1], the inhibition at 25 mg/kg came to 21% and the inhibition at 100 mg/kg came to 35%. Further, under setting [2], the inhibition at 25 mg/kg was determined as 26% and the inhibition at 100 mg/kg worked out at 36%.
The matching figures for `Cc1ccc2c(c1)c(O)c([N+](=O)[O-])c(=O)n2C` [Example 32, 1,6-Dimethyl-4-hydroxy-3-nitro carbostyril]: -12%, 16%, 55% and 26%.
Turning to `CCn1c(=O)c([N+](=O)[O-])c(O)c2cc(C)ccc21` [Example 33, 1-Ethyl-4-hydroxy-6-methyl-3-nitro carbostyril], under setting [1], the inhibition at 25 mg/kg is -12% and the inhibition at 100 mg/kg is -1%. Also, under setting [3], the inhibition at 25 mg/kg was -5% and the inhibition at 100 mg/kg stood at 16%.
For the compound `Cn1c(=O)c([N+](=O)[O-])c(O)c2cc(Cl)ccc21` [Example 34, 6-Chloro-4-hydroxy-1-methyl-3-nitro carbostyril], the inhibition at 25 mg/kg under setting [1] was -5% and the inhibition at 25 mg/kg under setting [3] was 8%. The inhibition at 100 mg/kg by setting is: under setting [1], 43%; under setting [3], 61%.
In the case of `CCn1c(=O)c([N+](=O)[O-])c(O)c2cc(Cl)ccc21` [Example 35, 6-Chloro-1-ethyl-4-hydroxy-3-nitro carbostyril], under setting [1], the inhibition at 25 mg/kg is -8% and the inhibition at 100 mg/kg was 5%. Under setting [3], the inhibition at 25 mg/kg is 11% and the inhibition at 100 mg/kg was determined as 88%.
As for `Cn1c(=O)c([N+](=O)[O-])c(O)c2ccc(Cl)cc21` [Example 36, 7-Chloro-4-hydroxy-1-methyl-3-nitro carbostyril], under setting [1], the inhibition at 25 mg/kg is -4% and the inhibition at 100 mg/kg came out at 34%. For the same compound, under setting [3], the inhibition at 25 mg/kg is -2% and the inhibition at 100 mg/kg is 50%.
Take `O=c1c([N+](=O)[O-])c(O)c2ccccc2n1-c1ccccc1` [Example 37, 4-Hydroxy-3-nitro-1-phenylcarbostyril]: under setting [1], the inhibition at 25 mg/kg was -2% and the inhibition at 100 mg/kg was 13%. Moreover, under setting [2], the inhibition at 25 mg/kg is 1% and the inhibition at 100 mg/kg was found to be 42%.
